The results in this text go back to patent US20230279004A1, “SOLID FORMS, SALTS, AND PROCESSES OF PREPARATION OF A CDK2 INHIBITOR” (Incyte Corporation, priority 2022, published 2023).

Marks after values point to notes of the source that are not given here.

The target of data set [1] is T1, CDK2/Cyclin E1 (Homo sapiens, UniProt P24941).
T1 construct: full-length human CDK2; GST (N); purchased Carna 04-165; host or cells: baculovirus expression system
In words: CDK2/Cyclin E1 HTRF enzyme activity assay. The conditions noted are these: 1 mM ATP. It is filed as biochemical. As for the experimental part: CDK2/Cyclin E1 enzyme activity assays utilize full-length human CDK2 co-expressed as N-terminal GST-tagged protein with FLAG-Cyclin E1 in a baculovirus expression system (Carna Product Number 04-165). Assays were conducted in white 384-well polystyrene plates in a final reaction volume of 8 μL. CDK2/Cyclin E1 (0.25 nM) was incubated with the compounds of the Examples (40 nL serially diluted in DMSO) in the presence of ATP (50 μM or 1 mM) and 50 nM ULight™-labeled eIF4E-binding protein 1 (THR37/46) peptide (PerkinElmer) in assay buffer (containing 50 mM HEPES pH 7.5, 1 mM EGTA, 10 mM MgCl2, 2 mM DTT, 0.05 mg/mL BSA, and 0.01% Tween 20) for 60 minutes at room temperature. The reactions were stopped by the addition of EDTA and Europium-labeled anti-phospho-4E-BP1 antibody (PerkinElmer), for a final concentration of 15 mM and 1.5 nM, respectively. HTRF signals were read after 1 hour at room temperature on a PHERAstar FS plate reader (BMG Labtech). Data was analyzed with IDBS XLFit and GraphPad Prism 5.0 software using a three or four parameter dose response curve to determine IC50 for each compound.
Background: Time-resolved FRET reads energy transfer from a long-lived donor to a nearby acceptor.

Data set [2] is described as follows: Solid form change on heating (DSC). It is filed as physicochemical. As for the experimental part: The DSC was obtained from TA Instruments Differential Scanning Calorimetry, Discovery DSC2500 with autosampler. The DSC instrument conditions were as follows: 20-300° C. at 10° C./min; Tzero aluminum sample pan and lid; and nitrogen gas flow at 50 mL/min.
When comparing the DSC of Form I and Form II, it was observed that Form II solids contained two peaks (FIG. 23), with the latter peak onset (≈191.0° C.) and Tmax (193.4° C.) similar to the peak onset and Tmax of Form I (FIG. 2).
The residual solvent could not be removed by conventional drying methods. […] The stoichiometric ratio of the compound of Formula (I) and 1,4-dioxane could be 4:1. The DSC of the solid (FIG. 26) contained a peak onset latter peak onset (≈192.6° C.) and Tmax (194.3° C.), which are similar to the peak onset (191.3° C.) and Tmax (193.3° C.) of Form I (FIG. 2).

The nature of data set [3]: Solubility measurement in various solvents (HPLC). It is filed as physicochemical. The conditions noted are these: for Solubility (25° C.) / solubility at 48 h: 48 h; for Solubility (50° C.) / solubility at 24 h: 24 h; for solubility at 48 h: 25 °C; for solubility at 48 h / solubility at 24 h: organic solvent or mixture; for solubility at 24 h: 50 °C. As for the experimental part:
5 mL of solvent (see Table 8) was added to the individual vials. The compound of Formula (I) Form I was added to the vials to get a cloudy solution at 25° C. Another approximately 20 mg of the compound of Formula (I) Form I was added to the cloudy solution. The mixture was agitated at 25±1° C. for 48 h, which was controlled by IKA® ETS-D5 temperature controller and IKA® RCT basic safety control. The supernatant was filtered using a syringe filter (0.22 μm). The saturated solution was pipetted into HPLC vials and diluted with MeOH or acetone.
The solubility measurement at 50° C. was performed according to the following procedure. 5 mL of solvent (see Table 8) was added to the individual vials. The compound of Formula (I) Form I was added to the vials to get a cloudy solution at 50° C. Another approximately 20-25 mg of the compound of Formula (I) Form I was added. The mixture was agitated at 50±1° C. for 24 h, which was controlled by IKA® ETS-D5 temperature controller and IKA® RCT basic safety control. The supernatant was filtered quickly using a warmed syringe filter (0.22 μm) at 50±1° C. The saturated solution was pipetted into HPLC vials and diluted with MeOH or acetone.

A short description of data set [4]: Phase equilibration (XRPD of equilibrated solid). The format is physicochemical. The conditions noted are these: Form I stirred at 25° C. for 48 hours or 50° C. for 24 hours, all solvents tested (Table 9). As for the experimental part: Phase equilibration studies were conducted to identify a predominant crystal form for phase identification. Based on its solubility in various solvent systems (Table 8), the compound of Formula (I) Form I was equilibrated in a representative groups of solvents at 25±1° C. and 50±1° C. To the solvents, the compound of Formula (I) Form I was added until a cloudy solution was obtained, then approximately 20 mg of the compound of Formula (I) Form I was added to the cloudy solution. The mixture was stirred at 25±1° C. or 50±1° C. for 48 hours or 24 hours, respectively. The solid was filtered, dried in vacuum, and analyzed by XRPD.

[5] abbreviates: 1,4-dioxane, thermodynamic from solid, 1,4-Dioxane.
Where [6] appears, read: 2-methoxyethanol, thermodynamic from solid.
[7] abbreviates: chloroform, thermodynamic from solid.
Where [8] appears, read: dimethylformamide, thermodynamic from solid.
Where [9] appears, read: iso-butyl acetate, thermodynamic from solid.
Where [10] appears, read: methyl ethyl ketone, thermodynamic from solid.
Setting [11] is: tetrahydrofuran (THF), thermodynamic from solid.

With `CCOc1c(-c2cn[nH]c2)ccn2nc(N[C@H]3CCN(S(C)(=O)=O)C[C@H]3C)nc12` [Compound of Formula (I), 8-ethoxy-N-((3R,4S)-3-methyl-1-(methylsulfonyl)piperidin-4-yl)-7-(1H-pyrazol-4-yl)-[1,2,4]triazolo[1,5-a]pyridin-2-amine], the IC50 (in general, the concentration that inhibits the measured activity by half) in data set [1] was no more than 20 nM.
`CCOc1c(-c2cn[nH]c2)ccn2nc(N[C@H]3CCN(S(C)(=O)=O)C[C@H]3C)nc12` [Form II, 8-ethoxy-N-((3R,4S)-3-methyl-1-(methylsulfonyl)piperidin-4-yl)-7-(1H-pyrazol-4-yl)-[1,2,4]triazolo[1,5-a]pyridin-2-amine]: in data set [2], the “Solid form change during the heating process” value is recorded as “changed to Form I”.
For `CCOc1c(-c2cn[nH]c2)ccn2nc(N[C@H]3CCN(S(C)(=O)=O)C[C@H]3C)nc12` [compound of Formula (I) Form I, 8-ethoxy-N-((3R,4S)-3-methyl-1-(methylsulfonyl)piperidin-4-yl)-7-(1H-pyrazol-4-yl)-[1,2,4]triazolo[1,5-a]pyridin-2-amine], the “Solubility (25° C.)” value is on record as >50* mg/mL in data set [3] (1,4-Dioxane); >50* mg/mL in data set [3] (2-Methoxyethanol); >50* mg/mL in data set [3] (Chloroform); >50* mg/mL in data set [3] (DMSO); 18.5 mg/mL in data set [3] (Dichloromethane); >50* mg/mL in data set [3] (Dimethylformamide). In addition, the “Solubility (25° C.)” value in data set [3] (MeOH) is recorded as 18.7 mg/mL; in data set [3] (Methyl ethyl ketone), 15.9 mg/mL; in data set [3] (Tetrahydrofuran (THF)), >50* mg/mL; in data set [3] (iso-Butyl acetate), 1.1 mg/mL; in data set [3] (iso-Propyl acetate) it was 1.8 mg/mL. Moreover, the “Solubility (50° C.)” value in data set [3] (1,4-Dioxane, 50° C.) was >50* mg/mL; in data set [3] (2-Me THF/H2O/Heptane (1:1.5%:1), 50° C.), 0.6 mg/mL; in data set [3] (2-Methoxyethanol, 50° C.), >50* mg/mL; in data set [3] (2-Methyl THF, 50° C.), 18.7 mg/mL; in data set [3] (3% water in EtOH, 50° C.), 20.0 mg/mL; in data set [3] (Chloroform, 50° C.), >50* mg/mL. Moreover, the “Solubility (50° C.)” value was >50* mg/mL in data set [3] (DMSO, 50° C.); >50* mg/mL in data set [3] (Dimethylformamide, 50° C.); 15.7 mg/mL in data set [3] (EtOH, 50° C.); 15.2 mg/mL in data set [3] (Ethyl formate, 50° C.); 25.3 mg/mL in data set [3] (Methyl ethyl ketone, 50° C.); >50* mg/mL in data set [3] (Tetrahydrofuran (THF), 50° C.). The “Solubility (50° C.)” value came to 0.5 mg/mL in data set [3] (Toluene, 50° C.) and 1.6 mg/mL in data set [3] (iso-Butyl acetate, 50° C.). Moreover, the solubility – broadly, how much of the substance goes into solution per volume – at 48 h was greater than 50 mg/mL in data set [3] (setting [5]); greater than 50 mg/mL in data set [3] (setting [6]); greater than 50 mg/mL in data set [3] (DMSO, thermodynamic from solid); 15 to 50 mg/mL in data set [3] (MeOH, thermodynamic from solid); greater than 50 mg/mL in data set [3] (setting [7]); 15 to 50 mg/mL in data set [3] (dichloromethane, thermodynamic from solid). The solubility at 48 h in data set [3] (setting [8]) was greater than 50 mg/mL; in data set [3] (setting [9]) it was 1 to 15 mg/mL; in data set [3] (iso-propyl acetate, thermodynamic from solid), 1 to 15 mg/mL; in data set [3] (setting [10]), 15 to 50 mg/mL; in data set [3] (setting [11]), greater than 50 mg/mL. The solubility at 24 h in data set [3] (setting [5]) was greater than 50 mg/mL; in data set [3] (2-Me THF/H2O/heptane (1:1.5%:1), thermodynamic from solid, 2-Me THF/H2O/Heptane (1:1.5%:1), 50° C.), less than 1 mg/mL; in data set [3] (setting [6]), greater than 50 mg/mL; in data set [3] (2-methyl THF, thermodynamic from solid), 15 to 50 mg/mL; in data set [3] (3% water in EtOH, thermodynamic from solid), 15 to 50 mg/mL; in data set [3] (DMSO, thermodynamic from solid), greater than 50 mg/mL. For the same molecule, the solubility at 24 h in data set [3] (EtOH, thermodynamic from solid) was 15 to 50 mg/mL; in data set [3] (setting [7]), greater than 50 mg/mL; in data set [3] (setting [8]) it was greater than 50 mg/mL; in data set [3] (ethyl formate, thermodynamic from solid) it was 15 to 50 mg/mL; in data set [3] (setting [9]) it was 1 to 15 mg/mL; in data set [3] (setting [10]), 15 to 50 mg/mL. Also, the solubility at 24 h in data set [3] (setting [11]) was greater than 50 mg/mL; in data set [3] (toluene, thermodynamic from solid) it was less than 1 mg/mL. In data set [4], the “Crystalline form for phase equilibration” value was “crystalline Form I”.
